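Following 48 hours of exposure in 96-well plates, responses at five concentrations were used to interpolate endpoints linearly. Here, GI50 denotes the concentration required for 50% inhibition of growth. TGI: total growth inhibition.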
Experiments:
Experiment in all cases: inhibition of tumour cell growth, NCI panel, 48 h
NCI-H522 lung = test system: NCI-H522 lung
A549 NSCLC = test system: A549 NSCLC
NCI-H23 lung = test system: NCI-H23 lung
A498 renal = test system: A498 renal
BT-549 breast = test system: BT-549 breast
TK-10 renal = test system: TK-10 renal
HT29 colon = test system: HT29 colon
PC-3 prostate = test system: PC-3 prostate

| Structure (SMILES) | GI50 (NCI-H522 lung) [µM] | TGI (NCI-H522 lung) [µM] | GI50 (A549 NSCLC) [µM] | TGI (A549 NSCLC) [µM] | GI50 (NCI-H23 lung) [µM] | TGI (NCI-H23 lung) [µM] | GI50 (A498 renal) [µM] | TGI (A498 renal) [µM] | GI50 (BT-549 breast) [µM] | TGI (BT-549 breast) [µM] | GI50 (TK-10 renal) [µM] | TGI (TK-10 renal) [µM] | GI50 (HT29 colon) [µM] | TGI (HT29 colon) [µM] | GI50 (PC-3 prostate) [µM] | TGI (PC-3 prostate) [µM] |
| --- | --- | --- | --- | --- | --- | --- | --- | --- | --- | --- | --- | --- | --- | --- | --- | --- |
| CCCCC[C@@H](C/C=C/CCC(=O)NC/C(=C/Cl)[C@H]1C(=O)C(C)(C)C(=O)[C@@H](C)[C@@]1(C)O)OC | 13.9 | 28 | 16.2 | 33.3 | 17 | 33.9 | 26 | 55 | 17.9 | 32.7 | 20.8 | 40.5 | 14.5 | 30.9 | 19.6 | 43.5 |
| N#CCC1(n2cc(-c3ncnc4[nH]ccc34)cn2)CN(C2CCN(C(=O)c3ccnc(C(F)(F)F)c3F)CC2)C1 | > 100 | > 100 | > 100 | > 100 | > 100 | > 100 | 29.1 | > 100 | 37.5 | > 100 | 55.3 | > 100 | > 100 | > 100 | > 100 | > 100 |
| C[C@]12CCC3=NCCN3C1=CC[C@@H]1[C@@H]2CC[C@@]2(C)[C@H]1CC[C@]2(C)O |  | > 100 |  | > 100 |  | > 100 |  | 77.6 |  | > 100 |  | > 100 |  | > 100 |  | > 100 |
| CCCCCCCCCCCCOC1C(C(CC(=O)N2CCN(Cc3ccc4c(c3)OCO4)CC2)NS(=O)(=O)c2cc(Cl)cc(Cl)c2)OC2OC(C)(C)OC21 (stereo not given) | 26.9 | > 100 | 8.48 | > 100 | 17.4 | > 100 | 43.4 | > 100 | 27.9 | > 100 | 58 | > 100 | 4.82 | 31.1 | 4.04 | > 100 |
| Cn1ccnc1C(=O)/C=C/c1ccc(C(=O)Nc2c(F)c(F)c(F)c(F)c2F)cc1 | 1.8 | 3.96 | 1.79 | 4.16 | 2.01 | 5.35 | 1.36 | 3.16 | 1.43 | 2.75 | 1.76 | 3.69 | 1.77 | 3.89 | 1.62 | 6.54 |
| Cc1ccc(C2=C(Cl)C(=O)C(c3ccc(C)cc3)=C(Cl)C2=O)cc1 |  | > 100 |  | > 100 |  | > 100 |  | > 100 |  | > 100 |  | > 100 |  | > 100 |  | > 100 |
| COc1cc(/C=C\c2cc(OC)c(OC)c(OC)c2)cc(NS(=O)(=O)c2ccc(Cl)cc2)c1OC | 0.209 | 0.87 | 0.716 | > 100 | 0.71 | > 100 | 0.179 | 0.832 | 0.966 | 77 | 0.779 | 99.6 | 0.348 | 10.2 | 0.395 | > 100 |
| COc1cccc(C2C(C#N)=C(N)Oc3cc4c(cc32)OCO4)c1 (stereo not given) | 0.0185 | 0.0715 | 0.0649 | 42.6 | 0.0694 | 15.8 | 0.0311 | 3 | 0.0874 | 5 | 0.728 | 48.4 | 0.0417 | 2.42 | 0.0534 | 39.5 |
| CC1=C(CNO)C2=C(C)C3(CC3)[C@@](C)(O)C(=O)C2=C1 | 0.679 | 5.25 | 1.17 | 17.6 | 0.473 | 2.72 | 1.6 | 3.28 | 1.24 | 3.6 | 3.24 | 8.4 | 2.34 | 58.8 | 1.91 | 19.6 |
| NC(N)=N/N=C(/c1ccccc1)c1ccccc1F | 3.12 | 14.7 | 4.51 | 36.8 | 5.02 | 27.8 | 2.28 | 9.44 | 5.11 | 23.6 | 9.86 | 47.2 | 0.628 | 11.5 | 4.7 | > 57.7 |
| O=C(OC[C@@H]1CO1)c1cccc2c(=O)c3ccccc3[nH]c12 | 0.421 | 2.2 | 0.468 | 5.68 | 0.288 | 1.25 | 1.76 | 3.56 | 0.338 | 2.86 | 0.646 |  | 0.311 | 3.17 | 0.381 | > 21.8 |
| COc1ccc(/C=C\c2cc(OC)c(OC)c(OC)c2)c(NS(=O)(=O)c2ccc(C(C)(C)C)cc2)c1O | 0.213 | 12.2 | 0.626 | 33 | 0.497 | 17.5 | 0.0241 | 0.169 | 0.467 | 5.22 | 1.3 | 37.1 | 3.51 | 18.6 | 0.369 | 17 |

From PubChem BioAssay (NCI)
